Laboratory results taken from PMC7714403 (JCI Insight, 2020).

Key:
PKN1 = PKN1 (Homo sapiens, UniProt Q16512); assay: KiNativ, OCI cells live cell; type: cell-based; details: 2 h
CDK2 = CDK2 (Homo sapiens, UniProt P24941); assay: KiNativ, OCI cells live cell; type: cell-based
IKKe, TBK1 = assay: KiNativ, OCI cells live cell; type: cell-based, human; details: labeling site Lys2, peptide DIKPGNIMR
LKB1 = LKB1 (Homo sapiens, UniProt Q15831); assay: KiNativ, OCI cells live cell; type: cell-based; details: 2 h, labeling site Lys2, peptide […]
LKB1, sequence (Q15831 1-430 limits assumed): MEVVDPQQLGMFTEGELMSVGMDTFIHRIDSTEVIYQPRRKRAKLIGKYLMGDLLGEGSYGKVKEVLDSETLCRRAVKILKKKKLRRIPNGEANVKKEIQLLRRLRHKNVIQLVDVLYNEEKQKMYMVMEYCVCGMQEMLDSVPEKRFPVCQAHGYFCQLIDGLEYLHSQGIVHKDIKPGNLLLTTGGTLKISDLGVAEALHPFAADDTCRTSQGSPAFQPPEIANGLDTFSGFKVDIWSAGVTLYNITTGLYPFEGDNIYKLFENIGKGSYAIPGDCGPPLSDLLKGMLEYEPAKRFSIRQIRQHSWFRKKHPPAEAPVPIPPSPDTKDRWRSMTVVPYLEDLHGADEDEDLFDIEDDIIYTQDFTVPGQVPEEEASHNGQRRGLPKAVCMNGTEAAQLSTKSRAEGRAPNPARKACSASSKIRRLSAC
LKB1, sequence (Q7RTN6 whole entry partner): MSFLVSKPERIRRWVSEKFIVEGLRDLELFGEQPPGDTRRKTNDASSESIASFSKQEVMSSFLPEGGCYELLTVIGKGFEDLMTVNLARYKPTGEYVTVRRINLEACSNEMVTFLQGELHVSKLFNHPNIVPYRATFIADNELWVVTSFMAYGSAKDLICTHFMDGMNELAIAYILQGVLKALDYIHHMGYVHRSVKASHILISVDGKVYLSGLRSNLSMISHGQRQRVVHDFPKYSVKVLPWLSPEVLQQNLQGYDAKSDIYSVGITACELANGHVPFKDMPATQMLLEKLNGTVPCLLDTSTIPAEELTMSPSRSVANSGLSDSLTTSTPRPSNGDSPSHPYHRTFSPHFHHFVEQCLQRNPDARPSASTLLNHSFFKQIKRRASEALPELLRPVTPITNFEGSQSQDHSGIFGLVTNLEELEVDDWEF
LKB1, sequence (Q9Y376 whole entry partner): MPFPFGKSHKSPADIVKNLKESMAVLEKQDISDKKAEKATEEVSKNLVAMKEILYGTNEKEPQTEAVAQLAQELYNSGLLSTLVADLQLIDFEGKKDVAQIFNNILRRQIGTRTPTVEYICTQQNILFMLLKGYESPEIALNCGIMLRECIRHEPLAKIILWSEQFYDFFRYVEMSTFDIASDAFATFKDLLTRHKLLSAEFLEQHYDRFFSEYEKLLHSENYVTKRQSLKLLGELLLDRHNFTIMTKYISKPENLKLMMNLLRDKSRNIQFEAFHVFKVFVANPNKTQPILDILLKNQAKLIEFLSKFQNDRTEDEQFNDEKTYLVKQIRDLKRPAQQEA

p38d, p38g = assay: KiNativ, OCI cells live cell; type: cell-based, human; details: labeling site Lys2, peptide DLKPGNLAVNEDCELK
SRPK1, SRPK2 = assay: KiNativ, OCI cells live cell; type: cell-based, human; details: labeling site Lys1, peptide FVAMKVVK
CaMK4 = CaMK4 (Homo sapiens, UniProt Q16566); assay: KiNativ, OCI cells live cell; type: cell-based; details: 2 h, labeling site Lys2, peptide […]
CaMK4, sequence (Q16566 whole entry): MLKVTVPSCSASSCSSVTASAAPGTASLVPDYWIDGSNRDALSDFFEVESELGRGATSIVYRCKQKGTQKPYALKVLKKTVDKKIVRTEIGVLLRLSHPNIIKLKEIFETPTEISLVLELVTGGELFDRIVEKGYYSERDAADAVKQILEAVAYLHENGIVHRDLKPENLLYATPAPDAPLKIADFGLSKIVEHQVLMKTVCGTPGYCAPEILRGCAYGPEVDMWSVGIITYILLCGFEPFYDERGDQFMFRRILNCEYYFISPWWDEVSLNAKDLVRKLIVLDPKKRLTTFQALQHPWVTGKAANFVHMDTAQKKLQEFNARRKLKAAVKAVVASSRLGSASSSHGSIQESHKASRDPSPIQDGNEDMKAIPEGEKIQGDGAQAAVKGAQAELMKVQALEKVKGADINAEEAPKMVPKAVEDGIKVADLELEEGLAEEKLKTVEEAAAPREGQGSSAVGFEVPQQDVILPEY

HCK = HCK (Homo sapiens, UniProt P08631); assay: KiNativ, OCI cells live cell; type: cell-based; details: 2 h, labeling site Activation Loop, peptide […]
HCK, sequence (P08631 whole entry): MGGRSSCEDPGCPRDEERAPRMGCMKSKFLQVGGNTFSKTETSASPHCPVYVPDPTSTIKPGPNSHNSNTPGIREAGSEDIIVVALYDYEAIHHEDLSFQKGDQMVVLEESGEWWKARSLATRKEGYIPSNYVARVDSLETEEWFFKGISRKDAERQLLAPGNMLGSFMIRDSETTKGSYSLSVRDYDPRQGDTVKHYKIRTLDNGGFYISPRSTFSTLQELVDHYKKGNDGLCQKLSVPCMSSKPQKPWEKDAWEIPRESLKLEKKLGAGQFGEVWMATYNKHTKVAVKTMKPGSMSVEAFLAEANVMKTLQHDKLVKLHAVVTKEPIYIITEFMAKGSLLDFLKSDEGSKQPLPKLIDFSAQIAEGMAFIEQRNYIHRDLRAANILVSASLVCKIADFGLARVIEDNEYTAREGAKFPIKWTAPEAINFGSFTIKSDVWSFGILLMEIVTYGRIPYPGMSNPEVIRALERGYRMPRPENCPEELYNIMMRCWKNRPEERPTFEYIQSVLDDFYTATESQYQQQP

PIP4K2C = target: T1, PIP4K2C (Homo sapiens, UniProt Q8TBX8); assay: KiNativ, OCI cells live cell; type: cell-based; details: 2 h, labeling site ATP
T1 sequence (Q8TBX8 1-421): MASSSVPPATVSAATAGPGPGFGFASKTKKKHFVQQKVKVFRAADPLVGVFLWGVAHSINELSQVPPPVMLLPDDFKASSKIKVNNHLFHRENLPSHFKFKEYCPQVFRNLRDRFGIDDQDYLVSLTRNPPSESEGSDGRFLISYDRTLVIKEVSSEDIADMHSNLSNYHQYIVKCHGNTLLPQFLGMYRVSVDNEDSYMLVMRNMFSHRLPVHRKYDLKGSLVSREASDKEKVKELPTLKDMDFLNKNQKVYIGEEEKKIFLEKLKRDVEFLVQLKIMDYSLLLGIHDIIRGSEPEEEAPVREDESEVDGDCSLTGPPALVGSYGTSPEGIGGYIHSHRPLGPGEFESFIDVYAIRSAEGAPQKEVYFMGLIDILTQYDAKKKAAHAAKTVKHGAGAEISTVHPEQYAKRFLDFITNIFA

MOLM13-Luc+ cells = assay: MOLM13-Luc+ xenograft model; type: in vivo, NSG mice; details: 3 weeks
Protocol: Engraftment and growth of leukemic cells were monitored by noninvasive bioluminescence imaging in cell line xenograft models, as previously done ([47]). Details on the cell engraftment and dosing in mouse models are provided in the Supplemental Methods.
Cell viability of primary samples
HS5-GFP human bone marrow stromal cells were plated and cultured for 72 hours to near confluence.
MOLM13 cells were then seeded onto HS5-GFP cells to establish a co-culture. Twenty-four hours later, cells were treated with increasing concentrations of drug for an additional 72 hours. MOLM13 and HS5-GFP cells were then separated and MTT assay s were performed for cell viability assessment of each cell population.
For murine or human primary AML cells, 100,000 cells/well were plated in a 96-well plate and treated with increasing concentrations of drug. Cell viability, via trypan blue, was measured every 24 hours. If the viability fell below 50% or at 72 hours of treatment, whichever came earlier, cell viability of each plate was measured via CellTiter-Glo. Primary human AML cells were obtained from the OSUCCC Leukemia Tissue Bank Shared […]
Primary AML samples were analyzed by targeted gene sequencing of 80 genes, as previously described (1). Samples were pooled and analyzed on a MiSeq system using the Illuminia MiSeq Reagent Kit v3. […]
Luc+ or MOLM13-Res -Luc+ cells, 0.5 million OCI-AML3 -Luc+ cells, and 10,000 Ba/F3-FLT3-ITD/F691L-GFP+ cells. Weekly tumor engraftment of cell line xenograft models were assessed after injection of D-luciferin (150mg/kg i.p.; Gold Biotechnology, Inc, St. Louis, MO) on Xenogen IVIS-200 imaging system (Perkin Elmer, Waltham, MA) or GFP monitoring by peripheral blood via BD LSR II flow cytometer (BD Biosciences, San Jose, CA). Signal intensity was analyzed using Living Image Software (PerkinElmer) or FlowJo v10.0.08 software (FlowJo, LLC, Ashland, OR). […]
At indicated time points, cells were collected and washed with PBS. CD11b expression was measured using anti-CD11b -APC antibody (BioLegend, San Diego, CA). […]

PIK3C2B = PIK3C2B (Homo sapiens, UniProt O00750); assay: KiNativ, OCI cells live cell; type: cell-based; details: 2 h, labeling site ATP, peptide […]
PIK3C2B, sequence (O00750 whole entry): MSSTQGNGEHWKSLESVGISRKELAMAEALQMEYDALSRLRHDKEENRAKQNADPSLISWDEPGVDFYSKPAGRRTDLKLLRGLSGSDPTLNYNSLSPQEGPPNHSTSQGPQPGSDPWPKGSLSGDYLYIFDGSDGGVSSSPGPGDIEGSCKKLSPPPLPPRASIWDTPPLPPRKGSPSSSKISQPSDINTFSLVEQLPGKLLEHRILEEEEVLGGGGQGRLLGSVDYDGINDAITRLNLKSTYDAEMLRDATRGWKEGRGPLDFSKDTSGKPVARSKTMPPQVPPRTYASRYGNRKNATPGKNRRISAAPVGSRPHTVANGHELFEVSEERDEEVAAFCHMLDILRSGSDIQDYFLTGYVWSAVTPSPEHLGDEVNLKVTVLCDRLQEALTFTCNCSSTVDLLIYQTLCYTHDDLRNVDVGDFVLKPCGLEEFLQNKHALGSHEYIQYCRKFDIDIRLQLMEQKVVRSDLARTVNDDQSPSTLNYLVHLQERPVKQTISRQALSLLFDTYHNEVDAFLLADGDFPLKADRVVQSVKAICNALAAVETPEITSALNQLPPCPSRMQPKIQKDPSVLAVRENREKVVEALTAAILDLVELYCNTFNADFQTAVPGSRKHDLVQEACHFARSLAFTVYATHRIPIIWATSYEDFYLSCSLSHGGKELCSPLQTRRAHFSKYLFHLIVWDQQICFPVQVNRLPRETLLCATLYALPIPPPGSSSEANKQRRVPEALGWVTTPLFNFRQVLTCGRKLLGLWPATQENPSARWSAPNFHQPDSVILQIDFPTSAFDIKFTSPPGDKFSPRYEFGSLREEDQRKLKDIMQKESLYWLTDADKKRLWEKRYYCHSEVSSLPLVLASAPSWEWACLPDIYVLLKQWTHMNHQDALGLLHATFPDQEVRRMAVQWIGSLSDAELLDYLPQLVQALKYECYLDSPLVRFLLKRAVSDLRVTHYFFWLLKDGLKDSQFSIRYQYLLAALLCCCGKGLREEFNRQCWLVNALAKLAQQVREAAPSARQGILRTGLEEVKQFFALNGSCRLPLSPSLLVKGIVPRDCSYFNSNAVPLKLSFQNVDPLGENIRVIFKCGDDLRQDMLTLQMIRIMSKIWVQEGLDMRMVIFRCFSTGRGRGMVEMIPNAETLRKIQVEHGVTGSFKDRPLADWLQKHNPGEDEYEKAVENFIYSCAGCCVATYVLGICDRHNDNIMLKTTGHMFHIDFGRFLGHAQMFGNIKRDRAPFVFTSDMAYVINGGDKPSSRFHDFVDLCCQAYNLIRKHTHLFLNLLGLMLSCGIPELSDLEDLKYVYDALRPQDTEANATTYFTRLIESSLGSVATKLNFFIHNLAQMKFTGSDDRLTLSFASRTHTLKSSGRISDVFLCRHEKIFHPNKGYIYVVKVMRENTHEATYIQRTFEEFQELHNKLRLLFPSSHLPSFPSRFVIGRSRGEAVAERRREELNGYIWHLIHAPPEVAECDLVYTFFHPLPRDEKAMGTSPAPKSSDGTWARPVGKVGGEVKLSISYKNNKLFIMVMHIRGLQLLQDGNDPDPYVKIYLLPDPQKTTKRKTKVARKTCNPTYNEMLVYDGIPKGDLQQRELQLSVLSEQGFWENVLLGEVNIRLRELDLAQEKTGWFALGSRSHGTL

PKN1, sequence (Q16512 whole entry): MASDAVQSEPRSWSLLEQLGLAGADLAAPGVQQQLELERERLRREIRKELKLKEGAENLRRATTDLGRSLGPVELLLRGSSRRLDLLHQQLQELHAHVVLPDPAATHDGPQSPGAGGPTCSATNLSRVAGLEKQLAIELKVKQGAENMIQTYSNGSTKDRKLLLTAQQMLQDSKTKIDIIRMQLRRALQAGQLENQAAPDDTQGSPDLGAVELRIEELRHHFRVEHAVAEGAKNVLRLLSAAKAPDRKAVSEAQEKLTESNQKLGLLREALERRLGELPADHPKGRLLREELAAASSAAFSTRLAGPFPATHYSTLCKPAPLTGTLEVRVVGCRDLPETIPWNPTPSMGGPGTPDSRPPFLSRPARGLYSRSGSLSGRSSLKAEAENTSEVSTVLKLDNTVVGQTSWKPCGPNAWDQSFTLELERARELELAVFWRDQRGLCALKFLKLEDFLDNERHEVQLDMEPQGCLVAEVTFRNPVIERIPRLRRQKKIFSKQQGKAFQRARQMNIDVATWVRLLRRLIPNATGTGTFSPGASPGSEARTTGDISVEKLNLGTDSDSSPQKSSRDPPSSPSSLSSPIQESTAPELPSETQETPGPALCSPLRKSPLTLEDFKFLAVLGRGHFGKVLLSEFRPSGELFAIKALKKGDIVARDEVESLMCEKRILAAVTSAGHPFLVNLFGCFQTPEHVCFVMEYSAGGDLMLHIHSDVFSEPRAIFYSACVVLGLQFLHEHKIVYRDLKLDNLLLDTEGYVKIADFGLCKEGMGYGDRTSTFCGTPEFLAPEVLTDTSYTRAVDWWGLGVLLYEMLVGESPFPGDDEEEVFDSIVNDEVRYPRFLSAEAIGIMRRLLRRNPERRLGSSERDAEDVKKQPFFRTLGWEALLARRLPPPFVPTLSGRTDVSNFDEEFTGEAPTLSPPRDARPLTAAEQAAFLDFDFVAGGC

CN1CCN(Cc2ccc(Nc3ncc(Cl)c(Nc4ccccc4S(=O)(=O)N(C)C)n3)cc2)CC1 [TP-0903]
inhibition at 0.1 µM (PKN1; labeling site Lys1, peptide VLLSEFRPSGELFAIKALK): 63.2%
inhibition at 0.1 µM (PKN1; labeling site Lys2, peptide DLKLDNLLLDTEGYVK): 33.7%
Inhibition (CDK2; labeling site Lys1, peptide LTGEVVALKK): 37.1%
Inhibition (CDK2; labeling site Lys2, peptide DLKPQNLLINTEGAIK): 41.4%
Inhibition (IKKe, TBK1): 64.1%
inhibition at 0.1 µM (LKB1): 25.7%
Inhibition (p38d, p38g): -17.4%
Inhibition (SRPK1, SRPK2): -36.9%
inhibition at 0.1 µM (CaMK4): -2.6%
inhibition at 0.1 µM (HCK): -3.8%
inhibition at 0.1 µM (PIP4K2C; peptide TLVIKEVSSEDIADMHSNLSNYHQYIVK): -9.8%
inhibition at 0.1 µM (PIP4K2C; peptide VKELPTLKDMDFLNK): -19.6%
Survival prolonged compared with vehicle (MOLM13-Luc+ cells; 60 mg/kg 5 days a week): 13 days
Survival prolonged compared with vehicle (MOLM13-Luc+ cells; 60 mg/kg once daily continuously): 17 days
Leukemia outgrowth (bioluminescence) (MOLM13-Luc+ cells; 60 mg/kg): suppressed leukemia outgrowth
inhibition at 0.1 µM (PIK3C2B): 0.282%
